How the values were obtained:
[1] = system: patients with symptomatic pulmonary embolism with or without symptomatic deep venous thrombosis; test: CASSIOPEA (EFC6034) phase III clinical trial: symptomatic recurrent PE/DVT (efficacy); format: in vivo, human
Experimental: Patients with confirmed symptomatic PE with or without acute symptomatic DVT are eligible for this trial. Treatment with a therapeutic dose of any LMWH or UFH or fondaparinux is allowed only within the 36 hours immediately preceding randomization. Randomization is performed as soon as the diagnosis of PE (and DVT if concomitant suspected symptomatic DVT) is confirmed.
(§1) A blinded central and independent adjudication committee (CIAC) assesses PE (and DVT when applicable), all episodes of locally confirmed or doubtful PE/DVT recurrences, clinically relevant bleedings and deaths. Adjudication results are the basis for the final analyses.
Patients in the 3-month stratum have an additional 13-week observational period after cessation of study treatment. Patients in the 6-month stratum have a 13-week up to 26-week observational period.
Injections of SSR126517E (or its placebo) is started 12 h after the last post-randomization enoxaparin administration. SSR126517E (or its placebo) is administered s.c. once-weekly for a period of 3 or 6 months. All patients receive a first 0.5 ml injection (3.0 mg in the SSR126517E group). The following injections are also 0.5 ml, except in patients with severe renal insufficiency (defined as creatinine clearance <30 mL/min), who decrease to a dosage of 0.3 ml (1.8 mg in the SSR126517E group).
The primary efficacy outcome is symptomatic recurrent PE/DVT (fatal or not), as validated by the CIAC, within 99 days for patients from both strata (3- and 6-month treatments).
A secondary efficacy outcome for patients in the 6-month stratum is symptomatic recurrent PE/DVT, as validated by the CIAC, within 190 days.
There are 2 additional efficacy outcomes: • the time to first symptomatic recurrent PE/DVT (fatal or non fatal) within the patient's treatment period, i.e. a combined analysis of the 3-and 6-month strata patients; • the separate components of the efficacy outcomes within 99 days (all patients) and within 190 days (6-month stratum patients only).
The definitions to confirm a suspected symptomatic episode of recurrent PE/DVT are as follows:
Efficacy analyses are performed on the—All-randomized—population (patients with a patient number and an allocated treatment number recorded in the IVRS database).
The secondary efficacy outcome (VTE recurrence within 190 days) for patients in the 6-month stratum is analyzed using the same method and applying the same non-inferiority margin.
Time to first symptomatic recurrent PE/DVT within the patient's study treatment period for all patients is analyzed using Cox's proportional hazards model, stratified on intended treatment duration.

[2] = system: patients with symptomatic pulmonary embolism with or without symptomatic deep venous thrombosis; test: CASSIOPEA (EFC6034) phase III clinical trial: clinically relevant bleeding (safety); format: in vivo, human
Text: According to the instant invention, the term “bleedings” designates any clinically relevant bleeding (i.e. major or clinically relevant non-major hemorrhage).
According to the instant invention, the term “major bleedings” designates any of the following clinical situations: • bleeding associated with a fall in hemoglobin of 2 g per deciliter or more, • bleeding that led to a transfusion of 2 or more units of packed red cells or whole blood (a red cell unit being defined as the quantity of red cells obtained from or corresponding to approximately 500 ml of whole blood), • bleeding that involved a critical organ (intracranial, intraocular, intraspinal, retroperitoneal or pericardial), • bleeding that contributed to death.
as §1
The principal safety outcome is any clinically relevant bleeding as classified by the CIAC (i.e. major bleeding and other clinically relevant non-major bleeding).
Bleeding analyses are also performed on the—All-randomized—population. Other safety analyses are performed on the—All-treated—population.
Rates of clinically relevant bleedings are calculated in each treatment group at 3 months (99 days) and 6 months (190 days) and compared between treatment groups using a Mantel-Haenszel chi-square stratified on intended treatment duration. Cumulative incidences of clinically relevant bleedings during the combined 3-month and 6-month period and up to the end of study are described by treatment group using the Kaplan Meier method.

[3] = system: patients with symptomatic pulmonary embolism with or without symptomatic deep venous thrombosis; test: CASSIOPEA (EFC6034) phase III clinical trial: deaths; format: in vivo, human; details: overall
Text: as §1

[4] = system: patients with symptomatic pulmonary embolism with or without symptomatic deep venous thrombosis; test: CASSIOPEA (EFC6034) phase III clinical trial: benefit-risk assessment (PE, DVT or major bleeding composite); format: in vivo, human; details: Randomized population; composite endpoint
Text: Tables 13 and 14 show the incidence of pulmonary embolism, deep venous thrombosis or major bleedings (composite endpoint) in the randomized population in the treatment phase (3-month or 6-month treatment with idrabiotaparinux) and up to the end of the study (assessment at 12 months).

[5] = system: patients with pulmonary embolism; details: human, in vivo; cited from earlier work
[6] = Randomized population, All patients
[7] = Randomized population, Patients with VKA beyond D99/D190
[8] = Randomized population, Patients with no VKA beyond D99/D190
[9] = Randomized population, or death for which PE could not be ruled out
[10] = combined 3-month and 6-month periods, time-to-event analysis (Kaplan-Meier)
[11] = treatment period plus 3 to 6-month post-treatment follow-up (up to end of study)

CC(=O)CC(c1ccccc1)c1c(O)c2ccccc2oc1=O (stereo not drawn) [Warfarin, warfarin, reference compound]
DVT only within 190 days from randomization: Patients with event ([1]; 6-month stratum): 17 (1.3%) n (%)
Non-fatal PE within 190 days from randomization: Patients with event ([1]; 6-month stratum): 10 (0.8%) n (%)
Symptomatic recurrent PE/DVT (fatal or not) from randomization to end of study: Patients with event ([1]; 6-month stratum, All patients): 76 (6.0%) n (%)
Symptomatic recurrent PE/DVT (fatal or not) from randomization to end of study: Patients with event ([1]; 6-month stratum, Patients with VKA beyond D190): 37 (9.1%) n (%)
Symptomatic recurrent PE/DVT (fatal or not) from randomization to end of study: Patients with event ([1]; 6-month stratum, Patients with no VKA beyond D190): 39 (4.5%) n (%)
Fatal PE within 190 days from randomization: Patients with event ([1]; 6-month stratum, or death for which PE could not be ruled out): 9 (0.7%) n (%)
Patients who experienced DVT up to Day 190 ([1]; 6-month stratum, up to Day 190): 1.3%
DVT only up to the end of study: Patients with event ([1]; Randomized population): 31 (1.9%) n (%)
DVT only within 99 days from randomization: Patients with event ([1]; Randomized population): 18 (1.1%) n (%)
Non-fatal PE up to the end of study: Patients with event ([1]; Randomized population): 41 (2.6%) n (%)
Non-fatal PE within 99 days from randomization: Patients with event ([1]; Randomized population): 9 (0.6%) n (%)
Symptomatic recurrent PE/DVT (fatal or not) within 190 days from randomization: Patients with event ([1]; Randomized population in the 6-month stratum): 36 (2.8%) n (%)
Symptomatic recurrent PE/DVT (fatal or not) from D100/D191 to end of study: Patients with event [1, 6]: 47 (3.1%) n (%)
Symptomatic recurrent PE/DVT (fatal or not) from randomization to end of study: Patients with event [1, 6]: 97 (6.1%) n (%)
Symptomatic recurrent PE/DVT (fatal or not) from D100/D191 to end of study: Patients with event [1, 7]: 32 (6.6%) n (%)
Symptomatic recurrent PE/DVT (fatal or not) from randomization to end of study: Patients with event [1, 7]: 45 (9.3%) n (%)
Symptomatic recurrent PE/DVT (fatal or not) from D100/D191 to end of study: Patients with event [1, 8]: 15 (1.5%) n (%)
Symptomatic recurrent PE/DVT (fatal or not) from randomization to end of study: Patients with event [1, 8]: 52 (4.6%) n (%)
Fatal PE up to the end of study: Patients with event [1, 9]: 25 (1.6%) n (%)
Fatal PE within 99 days from randomization: Patients with event [1, 9]: 16 (1.0%) n (%)
Symptomatic recurrent PE/DVT (fatal or not) within 99 days from randomization: Patients with event ([1]; Randomized population, within 99 days): 43 (2.7%) n (%)
Cumulative incidence of symptomatic recurrent PE/DVT at Day 99 [1, 10]: 2.7%
Cumulative incidence of symptomatic recurrent PE/DVT at Day 190 [1, 10]: 3.4%
Cumulative incidence rate of symptomatic recurrent PE/DVT at Day 360 [1, 11]: 7.2%
Patients who experienced DVT up to Day 99 ([1]; up to Day 99): 1.1%
Patients who experienced DVT up to the end of study ([1]; up to the end of study): 1.9%
Patients who experienced non-fatal PE up to the end of study ([1]; up to the end of study): 2.6%
Clinically relevant bleedings up to Day 190 ([2]; 6-month stratum): 8.1%
Fatal bleeding within 190 days from randomization: Patients with event ([2]; 6-month stratum): 5 (0.4%) n (%)
Intracranial haemorrhage (fatal or not) within 190 days from randomization: Patients with event ([2]; 6-month stratum): 6 (0.5%) n (%)
Major bleeding within 190 days from randomization: Patients with event ([2]; 6-month stratum): 36 (2.8%) n (%)
Patients who experienced a major bleeding up to Day 190 ([2]; 6-month stratum): 2.8%
Any clinically relevant bleeding within 99 days from randomization: Patients with event ([2]; Randomized population): 106 (6.6%) n (%)
Fatal bleeding within 99 days from randomization: Patients with event ([2]; Randomized population): 6 (0.4%) n (%)
Intracranial haemorrhage (fatal or not) within 99 days from randomization: Patients with event ([2]; Randomized population): 7 (0.4%) n (%)
Major bleeding within 99 days from randomization: Patients with event ([2]; Randomized population): 39 (2.4%) n (%)
Cumulative incidence of clinically relevant bleeding at Day 99 [2, 10]: 6.7%
Cumulative incidence of clinically relevant bleeding at Day 190 [2, 10]: 9.1%
Cumulative incidence rate of clinically relevant bleeding at Day 360 [2, 11]: 10.0%
Incidence of clinically relevant bleeding up to Day 99 ([2]; up to Day 99): 6.6%
Patients who experienced a major bleeding up to Day 99 ([2]; up to Day 99): 2.4%
Patients who died on study [3]: 5.3%
PE, DVT or major bleeding in the combined 3-month and 6-month period: Patients with event [4]: 98 (6.1%) n (%)
PE, DVT or major bleeding up to the end of study: Patients with event [4]: 150 (9.4%) n (%)

CO[C@H]1O[C@H](COS(=O)(=O)O)[C@@H](O[C@@H]2O[C@@H](C(=O)O)[C@@H](O[C@H]3O[C@H](COS(=O)(=O)O)[C@@H](O[C@@H]4O[C@H](C(=O)O)[C@@H](O[C@H]5O[C@H](COS(=O)(=O)O)[C@@H](OC)[C@H](OC)[C@H]5OC)[C@H](OC)[C@H]4OC)[C@H](OS(=O)(=O)O)[C@H]3OS(=O)(=O)O)[C@H](OC)[C@H]2OC)[C@H](OS(=O)(=O)O)[C@H]1OS(=O)(=O)O [idraparinux]
Outcome in patients with pulmonary embolism [5]: apparent failure
